Results on twelve compounds are retold here after patent US9382204B2, “Inhibitors targeting the DNA-binding domain of human STAT3 for treatment of metastatic cancers” (Indiana University Research and Technology Corporation, priority 2013, dated 2016).

SMILES strings stand for the structures.

The test system of this assay is STAT3. Description: STAT3-dependent luciferase reporter assay in MDA-MB-231-STAT3 stable cells. The note with it: 20 μM; for Rel. luciferase activity (%) 1: experiment 1, relative to DMSO; for Rel. luciferase activity (%) 2: experiment 2, relative to DMSO; for Rel. luciferase activity (%) 3: experiment 3, relative to DMSO; for Rel. luciferase activity (%) Mean: mean of experiments, relative to DMSO. It is filed as cell-based, human. How it is done: FIG. 12. Identification of active inS3-54 analogues. (A) Effects of inS3-54 analogues on STAT3-dependent luciferase expression. MDA-MB-231 cells with stable STAT3-dependent luciferase expression were treated with DMSO control, 20 μM inSTAT3-54 or its analogues (A1-A79), followed by measurement of luciferase activity. (*p<0.05; **p<0.01; ***p<0.001).
MDA-MB-231-STAT3 stable cell line with high level of STAT3-dependent luciferase expression was exposed to candidate compounds at 20 μM in DMSO for 48 hours based on previous studies, and luciferase activity was measured using a luciferase assay kit (Promega, USA), following manufacturer's instructions. The final DMSO concentration in this and following assays was 0.1% (vol/vol).

As to `CC(=O)c1cccc(N2C(=O)C(=Cc3ccc(-c4ccc([N+](=O)[O-])cc4)o3)C=C2c2ccccc2)c1` [Compound A8], the “Rel. luciferase activity (%) 1” value is reported as 71.9%, the “Rel. luciferase activity (%) 2” value was determined as 102.6%, the “Rel. luciferase activity (%) 3” value is 57.5% and the “Rel. luciferase activity (%) Mean” value is given as 77.3%.

As to `COc1ccc(C=C2C=C(c3ccccc3)N(c3ccc(NC(C)=O)cc3)C2=O)cc1` [Compound A60], the “Rel. luciferase activity (%) 1” value came to 70.7%, the “Rel. luciferase activity (%) 2” value is given as 107.0%, the “Rel. luciferase activity (%) 3” value is listed as 58.9% and the “Rel. luciferase activity (%) Mean” value was 78.9%.

Regarding `CC(C)(C)c1ccc(N2C(=O)C(=Cc3ccc(Cl)cc3)C=C2c2ccccc2)cc1` [Compound A21], the “Rel. luciferase activity (%) 1” value turned out to be 158.0%, the “Rel. luciferase activity (%) 2” value was 174.7%, the “Rel. luciferase activity (%) 3” value was determined as 159.1% and the “Rel. luciferase activity (%) Mean” value amounted to 163.9%.

For the compound `O=C1C(=Cc2ccc([N+](=O)[O-])cc2)C=C(c2ccccc2)N1c1ccccc1O` [Compound A42], the “Rel. luciferase activity (%) 1” value is listed as 100.8%, the “Rel. luciferase activity (%) 2” value turned out to be 145.3%, the “Rel. luciferase activity (%) 3” value is 100.8% and the “Rel. luciferase activity (%) Mean” value came to 115.6%.

Regarding `Cc1ccc(N2C(=O)C(=Cc3ccc([N+](=O)[O-])cc3)C=C2c2ccccc2)cc1C` [Compound A30], the “Rel. luciferase activity (%) 1” value came out at 89.6%, the “Rel. luciferase activity (%) 2” value is 83.9%, the “Rel. luciferase activity (%) 3” value stood at 61.2% and the “Rel. luciferase activity (%) Mean” value came out at 78.2%.

Take `O=C1C(=Cc2ccc(-c3ccc([N+](=O)[O-])cc3)o2)C=C(c2ccccc2)N1c1cccc(Cl)c1` [Compound A10]: the “Rel. luciferase activity (%) 1” value was found to be 87.4%, the “Rel. luciferase activity (%) 2” value is reported as 110.4%, the “Rel. luciferase activity (%) 3” value stood at 103.7% and the “Rel. luciferase activity (%) Mean” value is on record as 100.5%.

On to `O=C(O)c1ccc(N2C(=O)C(=Cc3ccc(-c4ccc(Cl)c(Cl)c4)o3)C=C2c2ccccc2)cc1` [Compound A61], for which the “Rel. luciferase activity (%) 1” value is 57.8%, the “Rel. luciferase activity (%) 2” value was 107.0%, the “Rel. luciferase activity (%) 3” value worked out at 40.8% and the “Rel. luciferase activity (%) Mean” value is 68.5%.

Take `COC(=O)c1ccc(N2C(=O)C(=Cc3ccc([N+](=O)[O-])cc3)C=C2c2ccccc2)cc1` [Compound A43]: the “Rel. luciferase activity (%) 1” value stood at 98.6%, the “Rel. luciferase activity (%) 2” value came to 100.4%, the “Rel. luciferase activity (%) 3” value turned out to be 66.9% and the “Rel. luciferase activity (%) Mean” value is recorded as 88.6%.

Consider `O=C1C(=Cc2ccc(Cl)cc2)C=C(c2ccccc2)N1c1ccc(Cl)cc1` [Compound A16], for which the “Rel. luciferase activity (%) 1” value was 55.8%, the “Rel. luciferase activity (%) 2” value is recorded as 91.2%, the “Rel. luciferase activity (%) 3” value turned out to be 57.1% and the “Rel. luciferase activity (%) Mean” value is given as 68.0%.

As to `O=C1C(=Cc2ccc(Cl)cc2)C=C(c2ccccc2)N1c1ccc(F)cc1` [Compound A22], the “Rel. luciferase activity (%) 1” value was found to be 97.9%, the “Rel. luciferase activity (%) 2” value worked out at 114.0%, the “Rel. luciferase activity (%) 3” value amounted to 61.1% and the “Rel. luciferase activity (%) Mean” value worked out at 91.0%.

Take `Cc1ccc(N2C(=O)C(=Cc3ccc(Cl)cc3)C=C2c2ccccc2)cc1[N+](=O)[O-]` [Compound A25]: the “Rel. luciferase activity (%) 1” value came out at 74.6%, the “Rel. luciferase activity (%) 2” value is on record as 124.2%, the “Rel. luciferase activity (%) 3” value amounted to 87.8% and the “Rel. luciferase activity (%) Mean” value was found to be 95.6%.

Regarding `COc1ccc(N2C(=O)C(=Cc3ccc(Cl)cc3)C=C2c2ccccc2)cc1` [Compound A17], the “Rel. luciferase activity (%) 1” value came to 103.2%, the “Rel. luciferase activity (%) 2” value is 120.5%, the “Rel. luciferase activity (%) 3” value worked out at 104.2% and the “Rel. luciferase activity (%) Mean” value stood at 109.3%.
